Data reported in patent publication US11458149B1, “TEAD inhibitors and uses thereof” (Ikena Oncology, Inc., priority 2019, dated 2022).
Like-named read-outs stand apart in the source and are kept apart here.

What was measured:
[1] = system: H226; test: Anti-proliferation assay in H226 cells; assay type: cell-based, human
Procedure: (§1) Certain compounds were tested in TEAD reporter assay, and in H226 and H28. A: EC50<0.1 uM; B: 0.1 uM≤EC50≤0.5 uM; C: EC50>0.5 uM.
Individual cell lines were grown in medium according to supplier instructions and seeded into 96-well plates at a density that ensured logarithmic growth over 72 hours. TEAD inhibitor compounds were administered to cells at a top concentration of 10 μm and subsequently a 10 point 3-fold serial dilution was conducted. After 72 hours, proliferation was quantified using Cell TITERGLO™ (Promega, Inc.) and compared to vehicle control. IC50 and EC50 values were generated using XLFit curve fitting software.

[2] = system: TEAD; test: TEAD reporter assay (Hippo Pathway TEAD Reporter - MCF7 cell line, luciferase); assay type: cell-based, human
Text: TEAD inhibition can be assayed using Hippo Pathway TEAD Reporter—MCF7 Cell Line (BPS Bioscience, Catalog #: 60618).
The TEAD Reporter—MCF7 cell line contains the firefly luciferase gene under the control of TEAD responsive elements stably integrated into the human breast cancer cell line, MCF7. Inside the cells, basal unphosphorylated YAP/TAZ remains in the nucleus and induces the constitutive expression of luciferase reporter. The cell line is validated for the inhibition of the expression of luciferase reporter by the activators of the Hippo pathway.
• 1) Harvest TEAD Reporter—MCF7 cells from culture in growth medium and seed cells at a density of 35,000 cells per well into white clear-bottom 96-well microplate in 45 μl of assay medium. • 2) Incubate cells at 37° C. in a CO2 incubator for overnight. • 3) Dilute the activators (H2O2 or okadaic acid) stock in assay medium. Add 5 μl of diluted activators to the wells. The final concentration of DMSO in assay medium is 0.1%. • 4) Add 5 μl of assay medium with same concentration of DMSO without activator to control wells. • 5) Add 50 μl of assay medium with DMSO to cell-free control wells (for determining background luminescence). • 6) Set up each treatment in at least triplicate. • 7) Incubate cells at 37° C. in a CO2 incubator for 5-6 hours. • 8) Perform luciferase assay using the ONE-Step™ Luciferase Assay System following the protocol provided: Add 100 μl of ONE-Step™ Luciferase reagent per well and rock at room temperature for ˜15 minutes. Measure luminescence using a luminometer. • 9) Data Analysis: Obtain the background-subtracted luminescence by subtracting the average background luminescence (cell-free control wells) from the luminescence reading of all wells.
as §1

[3] = H226 cells, read-out: H226 EC50
[4] = TEAD Reporter - MCF7 cells, read-out: TEAD Reporter Assay EC50
[5] = Homo sapiens, NCI-H226, H226 cells, read-out: H226 EC50
[6] = Homo sapiens, MCF7, TEAD Reporter - MCF7 cells, read-out: TEAD Reporter Assay EC50

Row | EC50 [1, 5] | EC50 [2, 6] | SMILES | further results
1 |  |  | C=CC(=O)NC1CCC(Nc2ccc(C(F)(F)F)cc2)CC1 (stereo not drawn) [Compound I-56, N-[4-[4-(trifluoromethyl)anilino]cyclohexyl]prop-2-enamide] | EC50 [1, 3]: > 0.5 µM; EC50 [2, 4]: > 0.5 µM
2 | > 0.5 µM | > 0.5 µM | C=CC(=O)NC1CCN(Cc2ccc(C#N)cc2)CC1 [Compound I-393] | 
3 | < 0.1 µM | < 0.1 µM | C=CC(=O)Nc1cc(Oc2cccc(C(F)(F)F)c2)c2cccnc2c1 [Compound I-44, N-[5-[3-(Trifluoromethyl)phenoxy]-7-quinolyl]prop-2-enamide] | 
4 | > 0.5 µM | > 0.5 µM | C=CC(=O)Nc1ccc(C)c(Oc2cc(C(F)(F)F)ccc2Br)c1 [Compound I-41, N-[3-[2-bromo-5-(trifluoromethyl)phenoxy]-4-methyl-phenyl]prop-2-enamide] | 
5 | > 0.5 µM | 0.1 to 0.5 µM | C=CC(=O)N[C@H]1CCN(Cc2ccc(C(F)(F)F)cc2)c2ccccc21 [Compound I-68, N-[(4S)-1-[[4-(Trifluoromethyl)phenyl]methyl]-3,4-dihydro-2H-quinolin-4-yl]prop-2-enamide] | 
6 | 0.1 to 0.5 µM | 0.1 to 0.5 µM | C=CC(=O)N[C@@H]1CCN(Cc2ccc(C(F)(F)F)cc2)C1 [Compound I-55, N-[(3R)-1-[[4-(trifluoromethyl)phenyl]methyl]pyrrolidin-3-yl]prop-2-enamide] | 
7 | 0.1 to 0.5 µM | 0.1 to 0.5 µM | C=CC(=O)NC1CCC(Oc2ccc(C(F)(F)F)cc2)CC1 (stereo not drawn) [Compound I-67, N-[4-[4-(Trifluoromethyl)phenoxy]cyclohexyl]prop-2-enamide] | 
8 | > 0.5 µM | > 0.5 µM | C=CC(=O)N1CCC(Nc2ccc(C(F)(F)F)cc2)CC1 [Compound I-59, 1-[4-[4-(trifluoromethyl)anilino]-1-piperidyl]prop-2-en-1-one] | 
9 | > 0.5 µM | > 0.5 µM | C=CC(=O)N1CCC(NCc2cccc(C(F)(F)F)c2)CC1 [Compound I-61] | 
10 |  |  | C=CC(=O)NC1CCC(Oc2ccc(C(F)(F)F)cc2)CC1 (stereo not drawn) [Compound I-70, N-[4-[4-(Trifluoromethyl)phenoxy]cyclohexyl]prop-2-enamide] | EC50 [1, 3]: < 0.1 µM; EC50 [2, 4]: < 0.1 µM
11 | > 0.5 µM | > 0.5 µM | C=CC(=O)NC1CCN(Cc2ccc(SC(F)(F)F)cc2)CC1 [Compound I-387] | 
12 | 0.1 to 0.5 µM | < 0.1 µM | C=CC(=O)Nc1cc(Oc2cccc(C(F)(F)F)c2)cc2ncccc12 [Compound I-42] | 
13 | > 0.5 µM | > 0.5 µM | C=CC(=O)NC1CCN(Cc2ccc(OC(F)(F)F)cc2)CC1 [Compound I-388] | 
14 | > 0.5 µM | > 0.5 µM | C=CC(=O)NC1CCN(Cc2ccc(C(C)(C)C)cc2)CC1 [Compound I-395] | 
15 | > 0.5 µM | > 0.5 µM | NC(=O)/C=C/c1cc(Oc2cccc(C(F)(F)F)c2)cc2ncccc12 [Compound I-39, (E)-3-[7-[3-(trifluoromethyl)phenoxy]-5-quinolyl]prop-2-enamide] | 
16 | > 0.5 µM | > 0.5 µM | C=CC(=O)NC1CCN(Cc2cccc(C(F)(F)F)c2)CC1 [Compound I-51, N-[1-[[3-(trifluoromethyl)phenyl]methyl]-4-piperidyl]prop-2-enamide] | 
17 | 0.1 to 0.5 µM | 0.1 to 0.5 µM | C=CC(=O)N1CC[C@@H](NCc2cccc(C(F)(F)F)c2)C1 [Compound I-386, 1-[(3R)-3-[[3-(Trifluoromethyl)phenyl]methylamino]pyrrolidin-1-yl]prop-2-en-1-one] | 

Row | EC50 [1, 5] | EC50 [2, 6] | SMILES | further results
18 | > 0.5 µM | > 0.5 µM | C=CC(=O)NC1CCN(Cc2ccc(-c3ccccc3)cc2)CC1 [Compound I-389] | 
19 | > 0.5 µM | > 0.5 µM | C=CC(=O)NC1CCN(c2cccc3ccccc23)CC1 [Compound I-66, N-[1-(1-Naphthyl)-4-piperidyl]prop-2-enamide] | 
20 | < 0.1 µM | < 0.1 µM | C=CC(=O)N[C@@H]1Cc2ccccc2N(Cc2cccc(C(F)(F)F)c2)C1 [Compound I-71, N-[(3R)-1-[[3-(Trifluoromethyl)phenyl]methyl]-3,4-dihydro-2H-quinolin-3-yl]prop-2-enamide] | 
21 |  |  | C=CC(=O)Nc1cccc(N2CCCc3cc(C(F)(F)F)ccc32)c1 [Compound I-43] | EC50 ([1]; Homo sapiens, NCI-H226, read-out: H226 EC50 (uM)): > 0.5 µM; EC50 ([2]; Homo sapiens, MCF7, read-out: TEAD Reporter Assay EC50 (uM)): > 0.5 µM
22 |  | > 0.5 µM | C=CC(=O)N[C@H]1CCCN(Cc2cccc(C(F)(F)F)c2)C1 [Compound I-48, N-[(3S)-1-[[3-(trifluoromethyl)phenyl]methyl]-3-piperidyl]prop-2-enamide] | 
23 | > 0.5 µM | > 0.5 µM | C=CC(=O)Nc1ccc(C)c(Oc2cc(C(F)(F)F)ccc2OC)c1 [Compound I-32, N-[3-[2-Methoxy-5-(trifluoromethyl)phenoxy]-4-methyl-phenyl]prop-2-enamide] | 
24 |  | > 0.5 µM | C=CC(=O)Nc1ccc2c(c1)N(c1ccc(C(F)(F)F)cc1)CCC2 [Compound I-34, N-[1-[4-(Trifluoromethyl)phenyl]-3,4-dihydro-2H-quinolin-7-yl]prop-2-enamide] | 
25 | 0.1 to 0.5 µM | > 0.5 µM | C=CC(=O)Nc1ccc2c(c1)N(c1cccc(C(F)(F)F)c1)CCC2 [Compound I-37, N-[1-[3-(trifluoromethyl)phenyl]-3,4-dihydro-2H-quinolin-7-yl]prop-2-enamide] | 
26 | > 0.5 µM | > 0.5 µM | C=CC(=O)NC1CCN(Cc2ccccc2)CC1 [Compound I-54, N-(1-benzyl-4-piperidyl)prop-2-enamide] | 
27 | 0.1 to 0.5 µM | > 0.5 µM | C=CC(=O)NC1CCN(Cc2ccc(C3CC3)cc2)CC1 [Compound I-397] | 
28 | > 0.5 µM | 0.1 to 0.5 µM | C=CC(=O)NC1CCN([C@@H](C)c2ccc(C(F)(F)F)cc2)CC1 [Compound I-63, N-[1-[(1S)-1-[4-(Trifluoromethyl)phenyl]ethyl]-4-piperidyl]prop-2-enamide] | 
29 | < 0.1 µM | 0.1 to 0.5 µM | C=CC(=O)N1C[C@@H]2[C@H](C1)[C@H]2NCc1cccc(C(F)(F)F)c1 [Compound I-72, 1-[(1S,5R)-6-[[3-(trifluoromethyl)phenyl]methylamino]-3-azabicyclo[3.1.0]hexan-3-yl]prop-2-en-1-one] | 
30 | 0.1 to 0.5 µM | > 0.5 µM | FC(F)(F)c1ccc(CN2CCC3(CC2)CC(Br)=NO3)cc1 [Compound I-149, 3-bromo-8-[[4-(trifluoromethyl)phenyl]methyl]-1-oxa-2,8-diazaspiro[4.5]dec-2-ene] | 
31 | > 0.5 µM | > 0.5 µM | C=CC(=O)N[C@H]1CCN(Cc2ccc(C(F)(F)F)cc2)C1 [Compound I-57, N-[(3S)-1-[[4-(trifluoromethyl)phenyl]methyl]pyrrolidin-3-yl]prop-2-enamide] | 
32 | 0.1 to 0.5 µM | 0.1 to 0.5 µM | C=CC(=O)NC1CCN(C(=O)c2ccc(C(F)(F)F)cc2)CC1 [Compound I-52, N-[1-[4-(trifluoromethyl)benzoyl]-4-piperidyl]prop-2-enamide] | 
33 | < 0.1 µM | 0.1 to 0.5 µM | C=CC(=O)N[C@H]1Cc2ccccc2N(Cc2cccc(C(F)(F)F)c2)C1 [Compound I-60, N-[(3S)-1-[[3-(trifluoromethyl)phenyl]methyl]-3,4-dihydro-2H-quinolin-3-yl]prop-2-enamide] | 
34 |  |  | C=CC(=O)NC1CCC(Nc2ccc(C(F)(F)F)cc2)CC1 (stereo not drawn) [Compound I-58, N-[4-[4-(trifluoromethyl)anilino]cyclohexyl]prop-2-enamide] | EC50 [1, 3]: > 0.5 µM; EC50 [2, 4]: > 0.5 µM
